Values of other authors in patent US20190167750A1, “NUTRITIONAL SUPPLEMENTS FOR INCREASING MALE TESTOSTERONE LEVELS” (Innovus Pharmaceuticals, Inc., priority 2017, published 2019).

What was measured:
human CYP3A4 = human CYP3A4 (Homo sapiens, UniProt P08684)
P-glycoprotein = P-glycoprotein (Homo sapiens, UniProt P08183)
Sequence of P-glycoprotein (P08183 whole entry): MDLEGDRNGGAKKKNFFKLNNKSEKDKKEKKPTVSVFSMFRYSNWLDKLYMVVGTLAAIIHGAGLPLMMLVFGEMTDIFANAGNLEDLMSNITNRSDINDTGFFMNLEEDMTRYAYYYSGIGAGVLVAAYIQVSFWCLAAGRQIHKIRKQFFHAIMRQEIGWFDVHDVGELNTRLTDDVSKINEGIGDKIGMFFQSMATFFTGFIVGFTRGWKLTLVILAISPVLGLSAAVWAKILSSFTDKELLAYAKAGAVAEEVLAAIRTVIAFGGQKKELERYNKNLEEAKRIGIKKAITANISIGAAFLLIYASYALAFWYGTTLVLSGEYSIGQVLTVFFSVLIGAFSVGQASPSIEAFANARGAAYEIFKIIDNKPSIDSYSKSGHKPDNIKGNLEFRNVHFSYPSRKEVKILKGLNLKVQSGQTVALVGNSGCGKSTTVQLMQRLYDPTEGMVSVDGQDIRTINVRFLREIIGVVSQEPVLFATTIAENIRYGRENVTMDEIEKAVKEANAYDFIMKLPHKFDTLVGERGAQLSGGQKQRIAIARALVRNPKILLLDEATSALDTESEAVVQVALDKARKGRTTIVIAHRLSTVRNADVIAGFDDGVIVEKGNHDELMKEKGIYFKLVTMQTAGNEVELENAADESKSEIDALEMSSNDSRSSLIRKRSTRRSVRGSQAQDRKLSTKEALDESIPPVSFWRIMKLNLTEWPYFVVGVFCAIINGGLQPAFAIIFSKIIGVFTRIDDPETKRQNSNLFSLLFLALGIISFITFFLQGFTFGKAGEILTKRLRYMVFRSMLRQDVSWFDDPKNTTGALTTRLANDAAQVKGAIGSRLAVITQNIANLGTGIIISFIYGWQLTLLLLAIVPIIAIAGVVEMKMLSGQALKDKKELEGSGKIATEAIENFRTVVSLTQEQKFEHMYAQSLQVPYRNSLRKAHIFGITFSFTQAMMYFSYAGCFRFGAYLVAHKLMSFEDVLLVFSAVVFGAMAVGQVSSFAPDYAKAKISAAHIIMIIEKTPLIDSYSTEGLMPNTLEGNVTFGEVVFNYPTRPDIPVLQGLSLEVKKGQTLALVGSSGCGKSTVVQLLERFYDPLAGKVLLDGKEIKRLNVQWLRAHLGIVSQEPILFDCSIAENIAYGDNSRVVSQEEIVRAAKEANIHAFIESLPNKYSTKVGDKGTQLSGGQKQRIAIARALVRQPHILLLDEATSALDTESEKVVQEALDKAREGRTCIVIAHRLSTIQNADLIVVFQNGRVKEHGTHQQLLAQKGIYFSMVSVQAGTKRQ

Sequence of human CYP3A4 (P08684 whole entry): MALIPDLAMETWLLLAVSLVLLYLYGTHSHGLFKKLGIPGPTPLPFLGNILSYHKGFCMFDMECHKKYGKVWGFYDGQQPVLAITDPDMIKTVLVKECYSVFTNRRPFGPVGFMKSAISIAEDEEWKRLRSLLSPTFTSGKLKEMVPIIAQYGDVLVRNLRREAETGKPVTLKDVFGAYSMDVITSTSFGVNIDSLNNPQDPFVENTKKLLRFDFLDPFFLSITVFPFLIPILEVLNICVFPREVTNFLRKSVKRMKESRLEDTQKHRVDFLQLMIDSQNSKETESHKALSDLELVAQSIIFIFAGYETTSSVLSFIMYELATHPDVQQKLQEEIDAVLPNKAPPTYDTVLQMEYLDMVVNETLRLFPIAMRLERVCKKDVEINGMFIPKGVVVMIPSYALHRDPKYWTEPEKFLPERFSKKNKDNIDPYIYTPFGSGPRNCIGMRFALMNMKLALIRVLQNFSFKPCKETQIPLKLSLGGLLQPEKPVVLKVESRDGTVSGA

For O=C(/C=C/C=C/c1ccc2c(c1)OCO2)N1CCCCC1 [Bioperine, (2E,4E)-5-(1,3-benzodioxol-5-yl)-1-(piperidin-1-yl)penta-2,4-dien-1-one], the “inhibition of human CYP3A4” value (human CYP3A4) is given as “inhibits” and the “inhibition of P-glycoprotein” value (P-glycoprotein) is given as “inhibits”.
